# Experimental data reported in patent US11219212B2, “Herbicidal composition comprising cinmethylin and imazamox” (BASF Agro B.V., priority 2015, dated 2022).
# Experiments:
# Format in all cases: in vivo
# [1] = test system: Abutilon theophrasti; assay: Greenhouse preemergence herbicidal activity; conditions: ABUTH, 20 DAT
# Method: (§1) The test plants have been seeded, separately for each species, in plastic containers in sandy loamy soil containing 5% of organic matter.
# (§2) The containers were irrigated gently to promote germination and growth and subsequently covered with transparent plastic hoods until the plants had rooted.
# (§3) The plants have been cultivated due to their individual requirements at 10-25° C. and 20-35° C. The plants were irrigated due to their necessity.
# (§4) The racemic mixture (±)-2-exo-(2-M ethylbenzyloxy)-1-methyl-4-isopropyl-7-oxabicyclo[2.2.1]heptane was used as herbicide A and formulated as emulsifiable concentrates with an active ingredient concentration of 50 g/l, 100 g/I or 750 g/I respectively.
# (§5) Imazamox (herbicide B.1) was used as a water dispersible granule (70% WG).
# (§6) In the following experiments, the herbicidal activity for the individual herbicidal compositions (solo and mixture applications) was assessed 20 days after treatment (DAT).
# (§7) The evaluation for the damage on undesired weeds caused by the chemical compositions was carried out using a scale from 0 to 100%, compared to the untreated control plants. Here, 0 means no damage and 100 means complete destruction of the plants.
# (§8) E=X+Y−(X·Y/100) where X=effect in percent using herbicide A at an application rate a; • Y=effect in percent using herbicide B at application rate b; • E=expected effect (in %) of herbicide A+herbicide B at application rates a+b.
# [2] = test system: Polygonum convolvulus; assay: Greenhouse preemergence herbicidal activity; conditions: herbicide A solo 125 g ai/ha, POLCO, 20 DAT
# Method: as §1, §2, §3, §4, §5, §6, §7, §8
# [3] = test system: Anthemis arvensis; assay: Greenhouse preemergence herbicidal activity; conditions: ANTAR, 20 DAT
# Method: as §1, §2, §3, §4, §5, §6, §7, §8
# [4] = test system: Sorghum halepense; assay: Greenhouse preemergence herbicidal activity; conditions: herbicide A solo 62.5 g ai/ha, SORHA, 20 DAT
# Method: as §1, §2, §3, §4, §5, §6, §7, §8
# [5] = test system: Geranium dissectum; assay: Greenhouse preemergence herbicidal activity; conditions: herbicide A solo 125 g ai/ha, GERDI, 20 DAT
# Method: as §1, §2, §3, §4, §5, §6, §7, §8
# [6] = test system: Galium aparine; assay: Greenhouse preemergence herbicidal activity; conditions: GALAP, 20 DAT
# Method: as §1, §2, §3, §4, §5, §6, §7, §8
# [7] = test system: Amaranthus retroflexus; assay: Greenhouse preemergence herbicidal activity; conditions: AMARE, 20 DAT
# Method: as §1, §2, §3, §4, §5, §6, §7, §8
# [8] = test system: Lolium multiflorum; assay: Greenhouse preemergence herbicidal activity; conditions: LOLMU, 20 DAT
# Method: as §1, §2, §3, §4, §5, §6, §7, §8
# [9] = test system: Setaria viridis; assay: Greenhouse preemergence herbicidal activity; conditions: SETVI, 20 DAT
# Method: as §1, §2, §3, §4, §5, §6, §7, §8
# [10] = test system: Avena fatua; assay: Greenhouse preemergence herbicidal activity; conditions: AVEFA, 20 DAT
# Method: as §1, §2, §3, §4, §5, §6, §7, §8
# [11] = test system: Chenopodium album; assay: Greenhouse preemergence herbicidal activity; conditions: herbicide A solo 37.5 g ai/ha, CHEAL, 20 DAT
# Method: as §1, §2, §3, §4, §5, §6, §7, §8
# [12] = test system: Echinochloa crus-galli; assay: Greenhouse preemergence herbicidal activity; conditions: ECHCG, 20 DAT
# Method: as §1, §2, §3, §4, §5, §6, §7, §8
# [13] = test system: Stellaria media; assay: Greenhouse preemergence herbicidal activity; conditions: STEME, 20 DAT
# Method: as §1, §2, §3, §4, §5, §6, §7, §8
# [14] = test system: Polygonum convolvulus; assay: Greenhouse postemergence herbicidal activity; conditions: POLCO, 20 DAT
# Method: as §1
# (§9) For the post emergence treatment, the plants were first grown to the 2 leaf station (GS 12). Here, the herbicidal compositions were suspended or emulsified in water as distribution medium and sprayed using finely distributing nozzles.
# as §3, §4, §5, §6, §7, §8
# [15] = test system: Anthemis arvensis; assay: Greenhouse postemergence herbicidal activity; conditions: herbicide A solo 500 g ai/ha, ANTAR, 20 DAT
# Method: as §1, §9, §3, §4, §5, §6, §7, §8
# [16] = test system: Sorghum halepense; assay: Greenhouse postemergence herbicidal activity; conditions: SORHA, 20 DAT
# Method: as §1, §9, §3, §4, §5, §6, §7, §8
# [17] = test system: Setaria viridis; assay: Greenhouse postemergence herbicidal activity; conditions: SETVI, 20 DAT
# Method: as §1, §9, §3, §4, §5, §6, §7, §8
# [18] = test system: Avena fatua; assay: Greenhouse postemergence herbicidal activity; conditions: herbicide A solo 43.8 g ai/ha, AVEFA, 20 DAT
# Method: as §1, §9, §3, §4, §5, §6, §7, §8
# [19] = test system: Chenopodium album; assay: Greenhouse postemergence herbicidal activity; conditions: CHEAL, 20 DAT
# Method: as §1, §9, §3, §4, §5, §6, §7, §8
substance,measurement,setting,value
(±)-2-exo-(2-Methylbenzyloxy)-1-methyl-4-isopropyl-7-oxabicyclo[2.2.1]heptane [herbicide A],herbicidal activity,[1]; herbicide A solo 100 g ai/ha,0%
same,herbicidal activity,[1]; herbicide A solo 200 g ai/ha,0%
same,herbicidal activity,[2],0%
same,herbicidal activity,[3]; herbicide A solo 50 g ai/ha,0%
same,herbicidal activity,[3]; herbicide A solo 62.5 g ai/ha,0%
same,herbicidal activity,[3]; herbicide A solo 150 g ai/ha,0%
same,herbicidal activity,[3]; herbicide A solo 200 g ai/ha,0%
same,herbicidal activity,[3]; herbicide A solo 300 g ai/ha,0%
same,herbicidal activity,[4],80%
same,herbicidal activity,[5],70%
same,herbicidal activity,[6]; herbicide A solo 25 g ai/ha,0%
same,herbicidal activity,[6]; herbicide A solo 200 g ai/ha,30%
same,herbicidal activity,[7]; herbicide A solo 25 g ai/ha,0%
same,herbicidal activity,[7]; herbicide A solo 37.5 g ai/ha,0%
same,herbicidal activity,[7]; herbicide A solo 75 g ai/ha,0%
same,herbicidal activity,[7]; herbicide A solo 100 g ai/ha,0%
same,herbicidal activity,[7]; herbicide A solo 150 g ai/ha,0%
same,herbicidal activity,[7]; herbicide A solo 200 g ai/ha,0%
same,herbicidal activity,[7]; herbicide A solo 300 g ai/ha,0%
same,herbicidal activity,[8]; herbicide A solo 25 g ai/ha,50%
same,herbicidal activity,[8]; herbicide A solo 37.5 g ai/ha,60%
same,herbicidal activity,[8]; herbicide A solo 125 g ai/ha,90%
same,herbicidal activity,[9]; herbicide A solo 25 g ai/ha,75%
same,herbicidal activity,[9]; herbicide A solo 62.5 g ai/ha,98%
same,herbicidal activity,[9]; herbicide A solo 75 g ai/ha,98%
same,herbicidal activity,[10]; herbicide A solo 50 g ai/ha,0%
same,herbicidal activity,[10]; herbicide A solo 75 g ai/ha,20%
same,herbicidal activity,[10]; herbicide A solo 100 g ai/ha,20%
same,herbicidal activity,[10]; herbicide A solo 250 g ai/ha,65%
same,herbicidal activity,[11],20%
same,herbicidal activity,[12]; herbicide A solo 62.5 g ai/ha,98%
same,herbicidal activity,[12]; herbicide A solo 125 g ai/ha,98%
same,herbicidal activity,[13]; herbicide A solo 50 g ai/ha,20%
same,herbicidal activity,[13]; herbicide A solo 75 g ai/ha,20%
same,herbicidal activity,[13]; herbicide A solo 150 g ai/ha,30%
same,herbicidal activity,[14]; herbicide A solo 62.5 g ai/ha,25%
same,herbicidal activity,[14]; herbicide A solo 175 g ai/ha,50%
same,herbicidal activity,[14]; herbicide A solo 250 g ai/ha,40%
same,herbicidal activity,[14]; herbicide A solo 350 g ai/ha,50%
same,herbicidal activity,[15],65%
same,herbicidal activity,[16]; herbicide A solo 62.5 g ai/ha,40%
same,herbicidal activity,[16]; herbicide A solo 175 g ai/ha,50%
same,herbicidal activity,[16]; herbicide A solo 350 g ai/ha,70%
same,herbicidal activity,[17]; herbicide A solo 43.8 g ai/ha,75%
same,herbicidal activity,[17]; herbicide A solo 62.5 g ai/ha,85%
same,herbicidal activity,[18],25%
same,herbicidal activity,[19]; herbicide A solo 43.8 g ai/ha,60%
same,herbicidal activity,[19]; herbicide A solo 62.5 g ai/ha,30%
same,herbicidal activity,[19]; herbicide A solo 125 g ai/ha,50%
